# Laboratory results from patent US20250288607A1, “METHODS FOR TREATING SEXUAL DYSFUNCTION ASSOCIATED WITH POLYCYSTIC OVARY SYNDROME (PCOS) OR WITH HYPOACTIVE SEXUAL DESIRE DISORDER (HSDD)” (INSTITUT NATIONAL DE LA SANTÉ ET DE LA RECHERCHE MÉDICALE, priority 2022, published 2025).
# No end group written: not given here.
# Experiments:
# nNOS^VMH neurons [1] = assay: Lordosis test with CNO pre-treatment followed by kisspeptin-10 (kisspeptin-nNOS^VMH coupling); assay type: in vivo, mice
# Procedure: (§1) Chemogenetic manipulations (viral transfection, stereotaxic injections, and behavioral assessment). The AAV9 double floxed Gi-coupled hM4D DREADD fused with fluorescent mCherry protein under the control of human synapsin promoter (AAV-hSyn-DIO-hM4D(Gi)-mCherry) (Addgene; catalog #44362-AAV9) was stereotaxically injected into the vlVMH of Nosl-ires-cre female mice under 4% isoflurane anesthesia with constant airflow. Lordosis test was carried out as described above with sexually experience female mice after three lordosis test trials. Females received i.p. injection with 100 μL of clozapine N-oxide dihydrochloride (CNO; Tocris; catalog #6329), at a dose of 3 mg/kg diluted in sterile saline, one hour before behavioral assessment. Each mouse received either CNO or saline (vehicle) in a random order, and the two behavioral assessments were performed ten days apart.
# (§2) Pharmacological treatments. SNAP: Female mice received a subcutaneous (s.c.) injection with 8 mg/kg S-nitroso-N-Acetyl-DL-Penicillamine (SNAP) (Sigma-Aldrich; catalog ##N3398) diluted in 100 μL of saline 15 minutes before behavioral testing and the chosen dose was based on previous reports (25). Kisspeptin: Female mice received a s.c. injection with 0.52 μg/kg kisspeptin-10 (Kiss-10; rodent metastin (45-54) amide; GeneCust; YY-10-NH2) diluted in 100 μL of saline 30 minutes before behavioral test based on previous reports (25). Sildenafil citrate: Female mice received an i.p. injection with 15 mg/kg sildenafil citrate (Sigma-Aldrich; catalog #171599-83-0) 1h before behavioral assessment based on previous trials from our laboratory (Chachlaki et al., unpublished data). Sildenafil citrate was firstly diluted in dimethyl sulfoxide (DMSO) to make up a stock solution of 25 mg/mL and further diluted with sterile saline to make up a working solution of 15 mg/mL for s.c. injection on the day of the injection.
# Using a similar approach as described above, we stereotaxically delivered the expression of AAV9-hM4(Gi)-mCherry in nNOS^VMH neurons in both Nos1cre/+ and wild-type female mice. […]
# nNOS^VMH neurons [2] = assay: Lordosis test after chemogenetic inhibition (hM4D(Gi) DREADD) of nNOS^VMH neurons with CNO; assay type: in vivo, mice
# Procedure: (§3) Female sexual behavior test. Estrus female mice were tested for lordosis behavior over the dark phase following previously reported protocols (25, 40). During the annotation of sexual behavior, we also assessed sexual rejection behaviors over the same period of time.
# as §1
# Among the three hypothalamic areas investigated in our study, the VMH (nNOS^VMH) is considered as the NOergic output responsible to control sexual performance in mammalian females (23), whereas nNOS^RP3V and nNOS^ARN are likely to contribute to the neuroendocrine control of GnRH/LH secretion (57, 58). […] To this end, we selectively targeted the expression of designer receptors exclusively activated by designer drugs (DREADD)-based tool hM4(Gi) into the VMH of Nos1cre/+ (Nos1-ires-cre; B6.129-Nos1tm1(cre)Mgmj/J) female mice (59). Viral transduction was established using a Cre-recombinase-dependent adeno-associated virus serotype 9 in which hM4 (Gi) is fused with mCherry reporter under the control of human synapsin (hSyn) promoter (AAV9-hSyn-DIO-hM4D(Gi)-mCherry) (Data not shown). The control group was composed of wild-type female mice receiving the same stereotaxic surgery. This approach provided an average efficiency of 86.82±2.33% of nNOS^VMH neurons targeted with AAV9-hM4 (Gi)-mCherry and with an off-target infection rate of 5.48±2.17% in non-nNOS^VMH neurons (N=5; Data not shown).
# Following viral transfection, Nos1^cre/+ female mice were subjected to two lordosis tests and randomly received either vehicle or the DREADD ligand clozapine N-oxide (CNO; 3 mg/kg) one hour before behavioral assessment.
# [3] = cited from earlier work
# [4] = tested on: control and PAMH female mice; assay: Female sexual behavior test (lordosis, mild and severe rejection quotients) after pharmacological treatment; assay type: in vivo
# Procedure: as §3
# All behavior tests were videotaped and manually annotated using Behavioral Observation Research Interactive Software (BORIS) (76).
# as §2
# Previous reports indicate that the control of female sexual behavior is highly dependent upon NOergic signaling in rodents (23-25). Having established the loss of nNOS expression in hypothalamic sites in PAMH mice, we next addressed whether the replenishment of NO levels could rescue normal sexual function in these females. Control and PAMH female mice were injected either with saline or S-nitroso-N-acetylpenicillamine (SNAP; 8 mg/kg), a well-known NO donor to boost circulating NO levels.
# NO-mediated physiological responses are mostly dictated by intracellular levels of cyclic guanosine monophosphate (cGMP). Commonly used drugs for male sexual dysfunction, such as sildenafil citrate, commercialized as Viagra®, enhance NOergic signaling by decreasing the degradation of cGMP accumulating intracellular levels of the latest. To determine the severity of NO insufficiency in PAMH mice, we administered sildenafil citrate to both groups and evaluated lordosis behavior.
# cFOS = assay: Percentage of cells expressing cFOS in hypothalamic and limbic areas following the lordosis test; assay type: in vivo, mice
# Procedure: Immunohistochemistry. Tissue preparation for immunohistochemistry is shown in SI Appendix. Free-floating immunohistochemistry was performed as described elsewhere (29, 73). Primary antibodies were used at the respective concentrations: polyclonal sheep anti-nNOS (1:2,000; generous gift from Dr. Piers C. Emson and validated elsewhere (74)), polyclonal rabbit anti-PR (1:500; Sigma; catalog #SAB4502184), rabbit anti-red fluorescent protein (RPF) (1:500; Rockland Immunochemicals, Inc.; catalog #600-401-379), and polyclonal chicken anti-GFP (1:1,000; Aves Labs Inc., catalog #GFP-1020). Brain sections were incubated with a cocktail of primary antibodies and 2% normal donkey serum (NDS) in incubation solution (0.25% bovine serum albumin with 0.3% Triton in TBS) over 48 hours at 4° C. Following washes with TBS, brain sections were incubated with secondary antibodies. Alexa Fluor 488 donkey anti-sheep (reference #A11015), Alexa Fluor 647 donkey anti-rabbit, (reference #A31573), Alexa Fluor 568 donkey anti-rabbit (reference #A10042) were all purchased from Thermo Fisher Scientific Inc. and used at 1:400 dilution in TBS solution. Alexa Fluor 488 donkey anti-chicken (Jackson ImmunoResearch Labs; reference #703-545-155) was used at 1:500 dilution in TBS solution. Sections were mounted onto glass slides and left to dry until covered with Fluoromount-G™ with DAPI (Invitrogen/Thermo Fisher Scientific Inc.; reference #00-4959-52), and coverslipped.
# Image acquisition and analysis. Two representative brain sections from each region (RP3V, VMH, rARN, mARN, and cARN) were chosen from each animal for Immunohistological analysis. Brain sections were firstly examined using an Axio Imager, Z1 ApoTome microscope (Zeiss, Oberkochen, Germany), and an AxioCam MRm camera (Zeiss). Confocal imaging and analyses Zeiss Spinning-Disk microscope Yokogawa CSU-X1 model (Zeiss; BioImaging Center Lille (BICeL), of the University of Lille, France). High magnification images were acquired taking Z-stacks of 0.5 μm-steps using a 40x-oil objective (1.30 NA). Confocal images were further processed with ImageJ software for cell counting analysis. Final analysis considered the average counting from two representative sections of each region.
# We aimed to determine how 8 mg/kg SNAP treatment may change the neuronal activation landscape in the female brain in estrus control and PAMH mice following the lordosis test. […]
# [5] = Nos1cre/+ female mice, CNO 3 mg/kg, P<0.01
# [6] = wild-type control group with same surgery, CNO 3 mg/kg
# [7] = PAMH female mice, SNAP 8 mg/kg, P<0.0001, similar to control levels
# [8] = control female mice, SNAP 8 mg/kg
compound,measurement,setting,value
"rodent metastin (45-54) amide (YNWNSFGLRY-NH2; UniProt Q6Y4S4 110-119, looked up) [kisspeptin-10, kisspeptin-10 peptide from GeneCust]",lordosis performance,"nNOS^VMH neurons [1]; control (wild-type) female mice, kisspeptin-10 0.52 μg/kg, -30 min, P<0.05",significantly enhanced lordosis performance
"C[N+]1([O-])CCN(C2=Nc3cc(Cl)ccc3Nc3ccccc32)CC1.Cl.Cl [CNO, clozapine N-oxide dihydrochloride]",lordosis quotient (LQ),"nNOS^VMH neurons [2]; Nos1cre/+ female mice with AAV9-hM4D(Gi)-mCherry in VMH, CNO 3 mg/kg i.p. one hour before test, P<0.01 vs vehicle",4.24±2.26
same,mild rejection behavior vs vehicle-injected mice,nNOS^VMH neurons [2]; [5],higher
same,severe rejection behavior vs vehicle-injected mice,nNOS^VMH neurons [2]; [5],higher
same,"lordosis behavior, CNO vs vehicle",nNOS^VMH neurons [2]; [6],did not show any difference between treatments
same,"mild rejection behavior, CNO vs vehicle",nNOS^VMH neurons [2]; [6],did not show any difference between treatments
same,"severe rejection behavior, CNO vs vehicle",nNOS^VMH neurons [2]; [6],did not show any difference between treatments
same,sexual (lordosis) behavior,"nNOS^VMH neurons [1]; Nos1cre/+ female mice, CNO pre-treatment, P<0.01",caused significant disruption of sexual behavior
same,lordosis behavioral output,"nNOS^VMH neurons [1]; control (wild-type) female mice, CNO alone, pre-injection -60 min",did not have any effect
[N]=O [Nitric oxide],half-life in the blood,[3],a few seconds
"CC(=O)NC(C(=O)O)C(C)(C)SN=O (racemic) [SNAP, S-nitroso-N-Acetyl-DL-Penicillamine]",lordosis quotient (LQ),"[4]; PAMH female mice, SNAP 8 mg/kg s.c. 15 minutes before test, mean±SEM",68.17±6.97
same,fold increase of lordosis behavior vs saline,"[4]; PAMH female mice, SNAP 8 mg/kg vs saline",~7.28 fold
same,lordosis behavior (in words),"[4]; PAMH female mice, SNAP 8 mg/kg, P<0.0001",robustly recovered normal lordosis behavior in PAMH female mice similar to control levels
same,mild rejection behavior (MRQ),[4]; [7],significantly reduced
same,severe rejection behavior (SRQ),[4]; [7],significantly reduced
same,mild rejection behavior (MRQ),[4]; [8],did not change these parameters
same,severe rejection behavior (SRQ),[4]; [8],did not change these parameters
same,cFOS expression in vlPAG and dmPAG,"cFOS; PAMH mice, SNAP 8 mg/kg",did not alter cFOS expression
same,"proportion of nNOS neurons expressing cFOS (vlVMH, pdMeA)","cFOS; PAMH mice, SNAP 8 mg/kg, P<0.05",fully restored the proportion of nNOS cells expressing cFOS to control levels
same,cFOS expression in vlPAG and dmPAG,"cFOS; control mice, SNAP 8 mg/kg vs vehicle, P<0.05",lower cFOS expression compared with vehicle-treated control mice
same,"cFOS expression in MPA, MnPO, vlVMH and pdMeA","cFOS; estrus PAMH mice, SNAP 8 mg/kg, after lordosis test",increased cFOS expression in all of these four regions in PAMH mice to control levels
